Counter-ions that a name gives are not always drawn. Like-named read-outs stand apart in the source and are kept apart here.
Assays:
[1] = system: mouse embryonic fibroblast C3H/10T 1/2 cells; assay: Gap junctional communication assay (Lucifer Yellow dye transfer); type: cell-based; conditions: 1×10^-5 M in 1:2 EtOH/H2O, 4 days; for extent of junctional communication: vs solvent controls
Method: A series of experiments were performed to assess the ability of the disodium salt disuccinate astaxanthin derivatives XVI to induce gap junctional communication (GJC) in an immortalized line of murine fibroblasts. Studies were conducted: • (1) at the functional level to measure cell/cell communication by increased dye transfer between confluent cells in monolayer culture; • (2) at the molecular level as measured by the ability of these compounds to induce expression of connexin43 (Cx43) protein. Cx43 is the structural unit of the intercellular channels in these fibroblasts that allows GJC; • (3) at the cellular level as shown by the ability of the disodium salt disuccinate astaxanthin derivatives XVI to increase the number and size of Cx43 immunoreactive plaques in regions of the plasma membrane in direct contact with adjacent cells. (1) Communication Assays. Experiments were performed to assess the ability of the disodium salt disuccinate astaxanthin derivative XVI [as a statistical mixture of the all-trans (all-E) stereoisomers, 3S,3′S, meso, and 3R,3′R in 1:2:1 ratio] to enhance gap junctional intercellular communication (GJC) between mouse embryonic fibroblast C3H/10T 1/2 cells. This ability has been previously highly correlated with the ability of carotenoids to inhibit carcinogen-induced neoplastic transformation (Zhang, 1992). Moreover, Cx43-mediated junctional communication between cardiac myocytes is responsible for transfer of signals that maintain synchronous contractions and prevent cardiac arrhythmias (Peters, 1995). Junctional permeability was assayed by microinjection of the fluorescent dye Lucifer Yellow CH (Sigma, St. Louis, Mo.) into individual confluent cells essentially as described previously (Zhang, 1994). […] Successful injection of Lucifer Yellow was confirmed by brief illumination with UV light, which causes yellow fluorescence of Lucifer Yellow. […] The number of fluorescent cells adjacent to the injected cell was later determined by digital image analysis using an unbiased density threshold method and the SigmaScan software program (Jandel Scientific). […]

superoxide anion = assay: Superoxide anion scavenging by EPR (DEPMPO spin trap) in phorbol ester-stimulated isolated neutrophils; type: cell-based, human; conditions: for potency relative to the SOD mimetic positive control: adjusted for percent inhibition and tested dose
Method: In an experiment, neutrophils were isolated on a Percoll gradient from whole blood from a human volunteer. The isolated neutrophils were then re-suspended in phosphate-buffered saline, and maximally stimulated with phorbol ester to induce the respiratory burst and production of superoxide anion. To the solution of activated human neutrophils, the disodium salt disuccinate astaxanthin derivative XVI was added at various concentrations, and the superoxide signal [as measured with electron paramagnetic resonance (EPR) spectroscopy] was subsequently measured. […] The disodium salt disuccinate astaxanthin derivative XVI tested at 100 μM scavenged 28% of the total signal. At 3 mM, almost no superoxide signal remained. […] In addition to reducing the superoxide anion signal important in ischemia-reperfusion injury, it is also likely that myocardial salvage can be achieved with the described carotenoid derivative, as superoxide anion plays a major role in tissue injury and death during prolonged myocardial ischemia. In a third experiment, neutrophils were again isolated on a Percoll gradient from whole blood from a second human volunteer. The isolated neutrophils were then re-suspended in phosphate-buffered saline, and maximally stimulated with phorbol ester to induce the respiratory burst and production of superoxide anion. […] Astaxanthin 2E was dissolved in HPLC grade dimethylsulfoxide (DMSO; Sigma-Aldrich, St. Louis, Mo.). The disodium disuccinate derivatives XVI of astaxanthin 2E were tested separately in […] formulations: statistical mixture of stereoisomers (as for astaxanthin, above, a 1:2:1 mixture of all-E; labeled as “mixture” in all tables and figures); 3S,3'S, and 3R,3'R (optical isomers or enantiomers); and meso (mixture of identical 3S,3'R and 3'S,3R; diastereomers of the enantiomeric pair). […] The disuccinate derivatives were first tested at the appropriate final concentrations in pure aqueous solution (deionized water) from stock solutions of 10 mM. Each of the four disuccinate derivatives were then tested from stock solutions prepared in a 1:2 mixture of ethanol (final concentration of EtOH in stock solution 331⁄3%; final concentration in isolated neutrophil assay 0.3%; HPLC grade ethanol, Sigma-Aldrich, St. Louis, Mo.) at 10 mM. […] Metaphore® Pharmaceuticals, Inc., St. Louis, Mo.) were also performed. Human polymorphonuclear leukocytes (PMNs) were isolated from freshly sampled venous blood of a single volunteer by Percoll density gradient centrifugation, which yielded PMNs with a purity of >95%. Each 10 mL of whole blood was mixed with 0.8 mL of 0.1 M EDTA and 25 mL of saline. The diluted blood was layered over 9 mL of Percoll at a specific density of 1.080 g/mL. After centrifugation at 400×g for 20 min at 20° C., the plasma, mononuclear cell, and Percoll layers were removed. Erythrocytes were lysed by addition of 18 mL of ice-cold water for 30 s, followed by 2 mL of 10× PIPES buffer (25 mM PIPES, 110 mM NaCl, and 5 mM KCl, titrated to pH 7.4 with NaOH). Cells were pelleted at 4° C., the supernatant was decanted, and the procedure was repeated. After the second hypotonic lysis, cells were washed twice with PAG buffer (PIPES buffer containing 0.003% human serum albumin and 0.1% glucose). Afterward, PMNs were counted by light microscopy on a hemocytometer. The final pellet was then suspended in PAG-CM buffer (PAG buffer with 1 mM CaCl2 and 1 mM MgCl2). All EPR measurements were performed using a Bruker ER 300 EPR spectrometer operating at X-band with a TM110 cavity. The microwave frequency was measured with a Model 575 microwave counter (EIP Microwave, Inc., San Jose, Calif.). To measure O^ -2 generation from phorbol-ester (PMA)-stimulated PMNs, EPR spin-trapping studies were performed using DEPMPO (Oxis, Portland, Oreg.) at 10 mM. 1×10^6 PMNs were stimulated with PMA (1 ng/mL) and loaded into capillary tubes for EPR measurements. […]

CC1=C(/C=C/C(C)=C/C=C/C(C)=C/C=C/C=C(C)/C=C/C=C(C)/C=C/C2=C(C)C(=O)C(OC(=O)CCC(=O)O)CC2(C)C)C(C)(C)CC(OC(=O)CCC(=O)O)C1=O (racemic) [XVI, Disodium Salt of the Disuccinic Acid Ester of Astaxanthin]
microinjected treated cells functionally coupled by gap junctions ([1]; 15 of 22 cells, control 27%): 56%
extent of junctional communication [1]: effectively increased the extent of junctional communication
extent of junctional communication ([1]; listed as disodium salt disuccinate astaxanthin derivative): induces functional gap junctional communication
total superoxide signal scavenged (superoxide anion; 100 μM, first experiment (FIG. 2)): 28%
suppression of superoxide anion signal (superoxide anion; 3 mM, first experiment (FIG. 2)): near complete suppression of the superoxide anion signal
inhibition at 100 µM (superoxide anion; Homo sapiens, Neutrophil, Solvent EtOH (1:2 EtOH/water stock, 0.3% final), 0.1 mM, read-out: Mean (% inhibition) of superoxide anion signal): ~40%
inhibition at 500 µM (superoxide anion; Homo sapiens, Neutrophil, Solvent EtOH, 0.5 mM, read-out: Mean (% inhibition) of superoxide anion signal): 60.1%
inhibition at 1000 µM (superoxide anion; Homo sapiens, Neutrophil, Solvent EtOH, 1.0 mM, read-out: Mean (% inhibition) of superoxide anion signal): 78%
inhibition at 3000 µM (superoxide anion; Homo sapiens, Neutrophil, Solvent EtOH, 3.0 mM, read-out: Mean (% inhibition) of superoxide anion signal): 95%
inhibition at 100 µM (superoxide anion; Homo sapiens, Neutrophil, Solvent Water, 0.1 mM, read-out: Mean (% inhibition) of superoxide anion signal): 19.3%
Mean (% inhibition) of superoxide anion signal (superoxide anion; Solvent EtOH (1:2 EtOH/water stock, 0.3% final), 0.1 mM, listed as Mixture): 38.0%
potency relative to the SOD mimetic positive control (superoxide anion): one to two orders of magnitude less potent
potency relative to the SOD mimetic positive control (superoxide anion; listed as disodium disuccinate derivative): between one and two orders of magnitude less potent

Reference: US7345091B2, “Carotenoid ether analogs or derivatives for the inhibition and amelioration of disease” (Cardax Pharmaceuticals, Inc., priority 2002, dated 2008)
